System: fertilized eggs obtained by the mating between female mice of the BDF2 lineage and male mice of the BDF1 lineage
Assay: In vitro culture of natural mating-derived fertilized eggs (BDF2 females x BDF1 males) with ALA; embryo development
Type: cell-based, mouse
Conditions: 1 μM ALA
Experimental: Aside therefrom, a drop of 100 μL of M16 medium covered with mineral oil (manufactured by Sigma-Aldrich Corp.) and supplemented with ALA hydrochloride (manufactured by SBI Pharmaceuticals Co., Ltd.) at a final concentration of 0 μM (control), 0.1 μM, 0.5 μM, or 1 μM was prepared in a 35 mm Petri dish and left standing at 37° C. in a CO2 incubator. 29 or 30 of the cumulus cell-free fertilized eggs were transferred to the resulting drop and cultured in vitro at 37° C. in a CO2 incubator.
After a lapse of 24 hours, 48 hours, 72 hours, and 96 hours from the start of the in vitro culture (0 hours) in the drop, the developmental stage of each embryo was determined by observation under a stereoscopic microscope, and the number of embryos whose development progressed normally and change in development rate were calculated. Specifically, the number of 2-cell eggs 24 hours after the start of the culture, the number of 3-cell, 4-cell, and 8-cell eggs 48 hours thereafter, the number of morulae and blastocysts 72 hours thereafter, and the number of blastocysts 96 hours thereafter were counted as embryos whose development progressed normally at each stage. The development rate with the number of fertilized eggs (0 hours) defined as 100% is shown in Table 3 and the graph of FIG. 1. For the evaluation of the development rate, the percentage of the number of embryos whose development progressed normally 24 hours, 48 hours, 72 hours, and 96 hours after the start of the culture was calculated with the number of fertilized eggs (0 hours) defined as 100%, and used as a normal development rate. Because of the natural mating, the number of recovered fertilized eggs (0 hours) includes unfertilized eggs to some extent, and there is the possibility that the content of unfertilized eggs varies accidentally among fertilized eggs (0 hours) populations distributed to the respective condition groups even if the fertilized eggs (0 hours) populations have been recovered in the same experiment. The development rate calculated with the number of 2-cell embryos 24 hours postfertilization defined as 100% was calculated in order to eliminate the influence of the content of unfertilized eggs that varies accidentally among the respective condition groups. In short, in order to calculate the development rate on the basis of the number of eggs that reliably started embryo development, the development rate with the number of 2-cell embryos 24 hours postfertilization defined as 100% is shown in Table 4 and the graph of FIG. 2. The results of each test group were statistically analyzed by the square test (chi-square test) with a statistically significant difference of p<0.01 (**) and p<0.05 (*).
The study was conducted in the same way as in Example 1 except that: the female mice used to harvest fertilized eggs were female mice of the BDF2 lineage (5 to 24 weeks old, body weight: 16 to 25 g) obtained by the mating between females and males of the BDF1 lineage (F1 of C57BL/6 females×DBA/2 males); the male mice used for mating were male mice of the BDF1 lineage (F1 of C57BL/6 females×DBA/2 males) (46 to 52 weeks old, body weight: 30 to 45 g); and 1 μM ALA was studied. The results are shown in Tables 5 to 7 below and FIGS. 3 and 4.

NCC(=O)CCC(=O)O [ALA, 5-aminolevulinic acid]
The number of developed embryos (24 hr): 41
development rate with the number of fertilized eggs (0 hr) defined as 100% (24 hr): 82%
The number of developed embryos (48 hr): 41
development rate with the number of 2-cell embryos 24 hours postfertilization defined as 100% (48 hr): 100%
development rate with the number of fertilized eggs (0 hr) defined as 100% (48 hr): 82%
The number of developed embryos (72 hr): 40
development rate with the number of fertilized eggs (0 hr) defined as 100% (72 hr): 80%
The number of developed embryos (96 hr): 40
development rate with the number of fertilized eggs (0 hr) defined as 100% (96 hr): 80%
development rate as compared with the ALA-unsupplemented control (in words) (number of fertilized eggs (0 hours) defined as 100%): elevate the development rate

Reference: patent US9962350B2, “Agent for improving normal development rate of fertilized eggs” (SBI Pharmaceuticals Co., Ltd., priority 2014, dated 2018)
